In patent publication US8557875B2, “Gene transfer agent composition containing polyamidoamine dendron” (Public University Corporation Osaka Prefecture University, priority 2009, dated 2013):

Assays:
[1] = tested on: HeLa-S3; assay: Gene transfer (GFP expression, luciferase activity) versus commercial agents (Example 5); type: cell-based; conditions: HeLa-S3 adherent cells; compared with Lipofectamine LTX and FuGENE HD
Method: pEGFP-C1 expressing a green fluorescent protein was used as a gene transfer plasmid; and adherent cells COS-7 and Hela-S3, and non-adherent cells K562, which were established cell lines, were used as target cells. Lipoplexes were individually prepared using DL-U2. Then, gene transfer was performed.
(HeLa—S3 cells: 3×10^4 cells/well·DMEM+10% FBS (Pe/St) 500 μl)
(i) A 20 mM Tris-HCl (pH 7.4) buffer was dispensed into three tubes at 35.5 μl (for NP ratio=6) for each of two tubes, and 23 μl (for NP ratio=8) for the remaining tube.
(ii) 1.0 μg of plasmid DNA (pCAG-GFP) was added to each of the three tubes prepared in step (i) at 2 μl (1.0 μg), and the contents were stirred.
(iii) A DL-U2 liposome solution was added to the three tubes prepared in step (ii) at 37.5 μl (N/P ratio=6) for each of two tubes, and 50 μl (N/P ratio=8) for the remaining tube.
(iv) 25 μl of an Opti-MEM (registered trademark) I Reduced-Serum Medium was further added, and the whole was thoroughly mixed and allowed to stand at room temperature for 5 minutes.
100 μl of the DL-plasmid DNA complex solution (N/P ratio=6) was added and mixed with the HeLa—S3 cells. […]
(vii) 48 hours later, luciferase activity was measured according to the protocol of the luciferase assay system (Promega, E1501) (relative values based on the activity of LTX defined as 1 were graphed).

[2] = tested on: NHDF-ad cells; assay: Toxicity evaluation after multiple gene transfer, WST-8 kit (Example 7); type: cell-based, human; conditions: transfer on Day 1, 3, 5, WST-8 on Day 7
Method: (§1) (NHDF-ad cells: 3.5×10^3 cells/well·DMEM+10% FBS (Pe/St) 70 μl)
(i) A 20 mM Tris-HCl (pH 7.4) buffer was dispensed into tubes at 35.5 μl (for NP ratio=6).
(ii) 1.0 μg of plasmid DNA (pCAG-GFP) was added to each of the two tubes prepared in step (i) at 2 μl (1.0 μg), and the contents were stirred.
(iii) To the prepared plasmid DNA solution was added 37.5 μl of a DL-U2 liposome solution (N/P ratio=6), and the whole was thoroughly mixed using a vortex and incubated at room temperature for 30 minutes.
(§2) (iv) 25 μl of an Opti-MEM(R) I Reduced-Serum Medium was further added, and the whole was thoroughly mixed and allowed to stand at room temperature for 5 minutes.
7 μl and 14 μl per well of the DL-plasmid DNA complex solutions was individually added to three wells, and the contents were mixed by shaking the plate so as to be homogeneous.
(§3) (vi) The cells were incubated at 37° C. in 5% CO2 for 4 hours, and the growth medium was replaced.
For the cells subjected to gene transfer operations on Day 1, the same gene transfer was performed on Day 3 and Day 5, as well.
Day 7 Toxicity evaluation was performed according to the protocol of a WST-8 kit (Kishida Chemical Co., Ltd.).
(a well to which no lipoplex solution was added was defined as 100%) […]

[3] = tested on: K562; assay: Cytotoxic evaluation on gene transfer (Example 5); type: cell-based; conditions: compared with Lipofectamine LTX and FuGENE HD
[4] = tested on: NHDF-ad cells; assay: Toxicity evaluation, WST-8 kit (Example 6); type: cell-based, human; conditions: WST-8, 48 hours
Method: as §1
(i) A 20 mM Tris-HCl (pH 7.4) buffer was dispensed into two tubes at, individually, 54.25 μl (for DL-G1) and 35.5 μl (for DL-U2).
(ii) 1.0 μg of plasmid DNA (pEGFP-luc+) was added to each of the two tubes prepared in step (i) at 2 μl (1.0 μg), and the contents were stirred.
(iii) To the prepared plasmid DNA solutions was added 37.5 μl of a DL-U2 liposome solution (N/P ratio=6), and the whole was thoroughly mixed using a vortex and incubated at room temperature for 30 minutes.
as §2
(v) 2.8 and 7.0 μl per well of the DL-plasmid DNA complex solutions was individually added to three wells, and the contents were mixed (the addition amount was one-seventh the addition amount in the luciferase activity measurement).
as §3
(vii) 48 hours later, toxicity evaluation was performed according to the protocol of a WST-8 kit (Kishida Chemical Co., Ltd.) (a well to which no lipoplex solution was added was defined as 100%). […]

[5] = tested on: various types of cells; assay: Transfection of various cell strains, GFP expression (Example 8); type: cell-based; conditions: COS7, HeLa-S3, A549, U2OS, SKOV3, Balb3T3, CHO, Jurkat, K562; 48 hours
Method: 4 hours after the addition, the medium was replaced (however, the medium was not replaced for Jurkat, K562). […] It should be noted that experimental conditions not described in the table conformed to those of the other examples.

SMILES: CCCCCCCC/C=C\CCCCCCCCN(CCCCCCCC/C=C\CCCCCCCC)CCC(=O)NCCN(CCC(=O)NCCN)CCC(=O)NCCN (racemic) [DL-G1-U2]
- gene transfer activity [1]: excellent gene transfer activity
- toxicity after multiple gene transfer [2]: lowest toxicity
- cytotoxicity [3]: lower cytotoxicity
- cytotoxicity on GFP gene transfer [4]: lower than those of most of the commercially available transfer agents
- gene transfer into various types of cells [5]: allowed the gene to be efficiently transferred
